This note sets out measurements from ChEMBL document CHEMBL3351521, “Benzene-1,3-dicarboxylic acid 2,5-dimethylpyrrole derivatives as multiple inhibitors of bacterial Mur ligases (MurC-MurF)” (Bioorg Med Chem, 2014).

For test [1], the target named is T1, UDP-N-acetylmuramoylalanine--D-glutamate ligase (Escherichia coli K-12, UniProt P14900).
T1 sequence (P14900 whole entry): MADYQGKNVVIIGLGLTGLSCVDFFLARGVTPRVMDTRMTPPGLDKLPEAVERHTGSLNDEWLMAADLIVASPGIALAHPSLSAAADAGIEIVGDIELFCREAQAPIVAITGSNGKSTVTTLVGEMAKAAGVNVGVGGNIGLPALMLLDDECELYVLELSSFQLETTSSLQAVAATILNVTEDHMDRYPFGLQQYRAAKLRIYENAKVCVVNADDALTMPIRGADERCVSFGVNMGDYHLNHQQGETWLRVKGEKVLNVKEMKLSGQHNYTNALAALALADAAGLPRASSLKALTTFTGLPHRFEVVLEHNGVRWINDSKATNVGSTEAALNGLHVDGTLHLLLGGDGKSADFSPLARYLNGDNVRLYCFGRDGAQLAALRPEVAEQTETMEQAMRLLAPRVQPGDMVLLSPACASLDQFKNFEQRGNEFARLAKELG
Description: Inhibition of Escherichia coli MurD after 15 mins in presence of 0.005% Triton X-114 by Malachite green assay.

Test [2] has as its target T1, UDP-N-acetylmuramoylalanine--D-glutamate ligase. Description: Partial un-competitive inhibition of Escherichia coli MurD using ATP substrate by steady-state enzyme kinetics assay.
The target of test [3] is UDP-N-acetylmuramate--L-alanine ligase (Escherichia coli K-12, UniProt P17952). Description: Inhibition of Escherichia coli MurC after 15 mins in presence of 0.005% Triton X-114 by Malachite green assay.
UDP-N-acetylmuramate--L-alanine ligase, sequence (P17952 whole entry): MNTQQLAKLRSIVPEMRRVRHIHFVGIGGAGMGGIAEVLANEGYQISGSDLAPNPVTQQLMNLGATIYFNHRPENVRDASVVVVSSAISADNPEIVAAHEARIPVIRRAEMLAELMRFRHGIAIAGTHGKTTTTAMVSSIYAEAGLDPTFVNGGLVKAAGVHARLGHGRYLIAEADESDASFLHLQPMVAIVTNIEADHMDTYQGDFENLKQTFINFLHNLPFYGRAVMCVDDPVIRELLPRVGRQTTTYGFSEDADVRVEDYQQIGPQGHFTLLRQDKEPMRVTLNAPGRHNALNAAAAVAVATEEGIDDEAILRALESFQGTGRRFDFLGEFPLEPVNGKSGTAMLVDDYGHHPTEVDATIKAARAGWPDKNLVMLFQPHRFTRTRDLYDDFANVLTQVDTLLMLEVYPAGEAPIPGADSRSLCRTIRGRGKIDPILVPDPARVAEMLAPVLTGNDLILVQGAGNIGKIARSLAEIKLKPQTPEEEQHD
Test [4] concerns the target T2, UDP-N-acetylmuramoyl-tripeptide--D-alanyl-D-alanine ligase (Escherichia coli K-12, UniProt P11880).
T2 sequence (P11880 whole entry): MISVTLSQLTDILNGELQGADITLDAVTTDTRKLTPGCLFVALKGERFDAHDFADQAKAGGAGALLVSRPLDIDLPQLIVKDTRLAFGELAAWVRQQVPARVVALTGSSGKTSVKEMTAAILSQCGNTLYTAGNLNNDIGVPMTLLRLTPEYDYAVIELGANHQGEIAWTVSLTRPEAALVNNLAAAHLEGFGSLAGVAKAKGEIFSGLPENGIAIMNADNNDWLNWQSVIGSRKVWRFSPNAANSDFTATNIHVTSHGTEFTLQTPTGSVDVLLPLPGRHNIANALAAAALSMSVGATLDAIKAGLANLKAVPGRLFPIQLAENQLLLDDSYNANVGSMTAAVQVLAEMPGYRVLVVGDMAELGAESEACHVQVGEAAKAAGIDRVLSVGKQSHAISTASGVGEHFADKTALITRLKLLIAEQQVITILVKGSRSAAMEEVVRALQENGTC
Description: Inhibition of Escherichia coli MurF after 15 mins in presence of 0.005% Triton X-114 by Malachite green assay.

The target of test [5] is T1, UDP-N-acetylmuramoylalanine--D-glutamate ligase. Description: Competitive inhibition of Escherichia coli MurD using D-Glu substrate by steady-state enzyme kinetics assay.
Test [6] concerns the target T3, UDP-N-acetylmuramoyl-L-alanyl-D-glutamate--2,6-diaminopimelate ligase (Escherichia coli (strain K12), UniProt P22188).
T3 sequence (P22188 whole entry): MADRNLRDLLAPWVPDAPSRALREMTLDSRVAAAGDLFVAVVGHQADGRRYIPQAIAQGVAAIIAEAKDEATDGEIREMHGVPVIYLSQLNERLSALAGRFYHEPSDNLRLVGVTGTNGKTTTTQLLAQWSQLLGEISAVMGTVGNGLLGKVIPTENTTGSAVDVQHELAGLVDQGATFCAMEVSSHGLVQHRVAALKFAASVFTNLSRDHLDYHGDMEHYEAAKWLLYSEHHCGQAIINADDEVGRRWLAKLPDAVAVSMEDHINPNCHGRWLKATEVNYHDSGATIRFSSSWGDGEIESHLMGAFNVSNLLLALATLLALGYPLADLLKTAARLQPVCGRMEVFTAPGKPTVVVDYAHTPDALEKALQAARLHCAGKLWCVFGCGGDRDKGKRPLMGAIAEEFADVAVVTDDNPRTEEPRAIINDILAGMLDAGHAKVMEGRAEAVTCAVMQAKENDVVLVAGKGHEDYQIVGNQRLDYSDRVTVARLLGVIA
Description: Inhibition of Escherichia coli MurE after 15 mins in presence of 0.005% Triton X-114 by Malachite green assay.

Test [7] addresses T1, UDP-N-acetylmuramoylalanine--D-glutamate ligase. Description: Partial non-competitive inhibition of Escherichia coli MurD using UMA substrate by steady-state enzyme kinetics assay.
Test [8] addresses T4, UDP-N-acetylmuramoyl-L-alanyl-D-glutamate--2,6-diaminopimelate ligase (Escherichia coli (strain K12)) (UniProt P22188).
T4 sequence (whole entry): T3 sequence (P22188 whole entry)
Description: Inhibition of Escherichia coli MurE assessed as residual enzyme activity at 250 uM after 15 mins in presence of 0.005% Triton X-114 by Malachite green assay.

Test [9] addresses T5, UDP-N-acetylmuramoylalanine--D-glutamate ligase (Escherichia coli K-12) (UniProt P14900).
T5 sequence (whole entry): T1 sequence (P14900 whole entry)
Description: Inhibition of Escherichia coli MurD assessed as residual enzyme activity at 250 uM after 15 mins in presence of 0.005% Triton X-114 by Malachite green assay.

In test [10] the target is UDP-N-acetylmuramate--L-alanine ligase (Escherichia coli K-12) (UniProt P17952). Description: Inhibition of Escherichia coli MurC assessed as residual enzyme activity at 250 uM after 15 mins in presence of 0.005% Triton X-114 by Malachite green assay.
UDP-N-acetylmuramate--L-alanine ligase (Escherichia coli K-12), sequence (P17952 whole entry, looked up): as the sequence (P17952 whole entry) above
Test [11] has as its target T6, UDP-N-acetylmuramoyl-tripeptide--D-alanyl-D-alanine ligase (Escherichia coli K-12) (UniProt P11880).
T6 sequence (whole entry): T2 sequence (P11880 whole entry)
Description: Inhibition of Escherichia coli MurF assessed as residual enzyme activity at 250 uM after 15 mins in presence of 0.005% Triton X-114 by Malachite green assay.

In test [12] the test system is Haemophilus influenzae. Description: Antimicrobial activity against Haemophilus influenzae ATCC 49766 after 20 to 24 hrs. Format: functional.
The test system of test [13] is Enterococcus faecalis. Description: Antimicrobial activity against Enterococcus faecalis ATCC 29212 after 16 to 20 hrs. Format: functional.
The subject of test [14] is Staphylococcus aureus. Description: microbe, parasite or virus in culture. The following applies: ATCC 29213.
Description: Antimicrobial activity against Staphylococcus aureus ATCC 29213 after 16 to 20 hrs

In brackets after ≈: the same amount, converted by molar mass.

By IC50 is commonly meant the concentration at which inhibition is half-maximal. By Ki is commonly meant the dissociation constant of the complex between target and ligand, obtained from inhibition or displacement. Higher therefore signals weaker binding. For `Cc1cc(/C=C2/S/C(=N/c3ccc(Cl)cc3)NC2=O)c(C)n1-c1cc(C(=O)O)cc(C(=O)O)c1`, the IC50 turned out to be 60 µM in [1], 41 µM in test [3], 89 µM in test [4] and 93 µM in [6]. Further, the inhibitory constant (Ki) is 39 µM in test [2], 21 µM in [5] and 29 µM in test [7].
Turning to `O=C1N/C(=N\c2ccc(Br)cc2)S/C1=C/c1c[nH]c2ccccc12`, the Activity in test [8] was found to be 90%; in [9], 102%; in test [10], 87%; in test [11], 75%.
Turning to `Cc1cc(/C=C2/S/C(=N/c3ccc(F)cc3)NC2=O)c(C)n1C`, the Activity in test [8] stood at 76%; in test [9] it was 78%; in test [10] it was 82%; in test [11] it was 67%.
For `CCc1ccccc1N1C(=O)/C(=C\c2cc(C)n(-c3cc(C(=O)O)cc(C(=O)O)c3)c2C)C(=O)NC1=S`, the results for the Activity in test [10] and in test [11] were 85% and 68%, respectively.
`Cc1cc(/C=C2/C(=O)NC(=S)N(c3cccc(Cl)c3)C2=O)c(C)n1-c1cc(C(=O)O)cc(C(=O)O)c1`: the Activity was 80% in test [10] and 78% in test [11].
As to `COc1ccc(/N=C2\NC(=O)/C(=C\c3cc(C)n(-c4cc(C(=O)O)cc(C(=O)O)c4)c3C)S2)cc1`, the IC50 in test [1] worked out at 168 µM; in test [3] it was 172 µM; in test [4], 281 µM; in [6] it was 303 µM.
Consider `C/N=C1/S/C(=C/c2cc(C)n(-c3cc(C(=O)O)cc(C(=O)O)c3)c2C)C(=O)N1C`, for which the Activity in [8] was determined as 97%; in test [9], 89%; in test [10], 106%; in [11] it was 95%.
With `O=C1NC(=S)N(c2ccc(F)cc2)C(=O)/C1=C\c1ccc2c(c1)OCO2`, the Activity in [8] was found to be 97%; in test [9], 102%; in test [10], 108%; in test [11], 81%.
Regarding `O=C1NC(=S)N(c2ccc(Br)cc2)C(=O)/C1=C\c1ccc2c(c1)OCO2`, the Activity in [8] came out at 81%; in [9], 91%; in test [10], 120%; in test [11] it was 95%.
In the case of `CO/N=C(\C(=O)N[C@@H]1C(=O)N2C(C(=O)O)=C(COC(N)=O)CS[C@H]12)c1ccco1` [CEFUROXIME], the MIC in test [12] was found to be 0.5 µg/mL (≈ 1.18 µM).
As for `Cc1ccc(/N=C2\NC(=O)/C(=C\c3cc(C)n(-c4cc(C(=O)O)cc(C(=O)O)c4)c3C)S2)cc1`, the half-inhibitory concentration (IC50) in test [1] was 170 µM; in test [3] it was 107 µM; in test [4] it was 201 µM; in [6] it was 245 µM.
`CCc1ccc(N2C(=O)/C(=C\c3cc(C)n(C4CCCCC4)c3C)C(=O)NC2=S)cc1`: the Activity in [8] was 97%; in [9], 100%; in test [10] it was 92%; in [11], 75%.
As for `Cc1cc(/C=C2/C(=O)NC(=S)N(c3cccc(Cl)c3Cl)C2=O)c(C)n1-c1cc(C(=O)O)cc(C(=O)O)c1`, the results for the Activity in test [10] and in test [11] were 96% and 86%, respectively.
For the molecule `Cc1cc(/C=C2/S/C(=N/c3ccc(Br)cc3)NC2=O)c(C)n1-c1cc(C(=O)O)cc(C(=O)O)c1`, the IC50 in [1] was 66 µM; in test [3], 44 µM; in test [4] it was 102 µM; in [6], 89 µM.
Consider `Cc1cc(/C=C2/C(=O)NC(=S)N(c3ccccc3F)C2=O)c(C)n1-c1cc(C(=O)O)cc(C(=O)O)c1`, for which the IC50 in test [4] turned out to be 344 µM; in [6], 311 µM. Moreover, the Activity in test [9] is 71%; in test [10] it was 60%.
Consider `Cc1cc(/C=C2/C(=O)NC(=S)N(c3ccccc3)C2=O)c(C)n1-c1cc(C(=O)O)cc(C(=O)O)c1`, for which the MIC in test [13], in test [14] and in [12] was greater than 256 µg/mL in each case. Besides, the values for the Activity in test [10] and in [11] were 75% and 84%, respectively.
Take `Cc1cc(/C=C2/SC(=S)NC2=O)c(C)n1-c1cc(C(=O)O)cc(C(=O)O)c1`: the IC50 in [1] stood at 95 µM; in test [3], 133 µM. Besides, the MIC is 128 µg/mL (≈ 318 µM) in test [13], greater than 256 µg/mL in test [14] and 256 µg/mL (≈ 636 µM) in [12]. The Activity in [11] came out at 89%.
Turning to `Cc1cc(/C=C2/S/C(=N/c3cccc(Br)c3)NC2=O)c(C)n1C1CCCCC1`, the Activity in [8] is 91%; in test [9], 79%; in [10] it was 89%; in [11], 93%.
For `Cc1cc(/C=C2/C(=O)NC(=O)N(c3ccc(Br)cc3)C2=O)c(C)n1-c1cc(C(=O)O)cc(C(=O)O)c1`, the Activity worked out at 71% in test [9], 62% in test [10] and 60% in test [11]. Also, in test [6], the IC50 stood at 211 µM.
Consider `Cc1cc(/C=C2/S/C(=N/c3ccccc3)NC2=O)c(C)n1-c1cc(C(=O)O)cc(C(=O)O)c1`, for which the IC50 in test [1] came out at 206 µM; in test [3], 205 µM; in test [4], 298 µM; in [6], 494 µM. The MIC was greater than 256 µg/mL in test [13], greater than 256 µg/mL in [14] and 256 µg/mL (≈ 555 µM) in [12].
With `O=C1NC(=S)N(c2ccc(Cl)cc2)C(=O)/C1=C\c1cc2ccccc2[nH]1`, the Activity was found to be 71% in test [9], 77% in [10] and 20% in [11]. Also, in test [6], the IC50 amounted to 44 µM.
As for `CCc1ccc(N2C(=O)NC(=O)/C(=C/c3cc(C)n(-c4cc(C(=O)O)cc(C(=O)O)c4)c3C)C2=O)cc1`, the Activity in test [9] was found to be 81%; in test [10], 74%; in test [11], 75%. In addition, in [6], the IC50 is 330 µM.
With GENTAMICIN, in test [13], the MIC is 8 µg/mL.
